In ChEMBL document CHEMBL4622904, “The discovery of azetidine-piperazine di-amides as potent, selective and reversible monoacylglycerol lipase (MAGL) inhibitors” (Bioorg Med Chem Lett, 2020):
Active and inactive are the calls of the source. The calls are words filed in the database; no cut-off is given here.

What was measured:
[1] = Oral bioavailability in rat at 10 mg/kg; format: ADME, organism-based; details: in vivo
[2] = Tmax in rat at 10 mg/kg, po; format: ADME, organism-based; details: in vivo
[3] = Cmax in rat at 10 mg/kg, po; format: ADME, organism-based; parameters: dose 10 mg/kg, route oral; details: in vivo
[4] = test system: Rattus norvegicus; assay: Reversal of complete freund's adjuvant-induced thermal hyperalgesia in Sprague-Dawley rat model assessed as increase in paw withdrawal latency time at 30 mg/kg, po pre-exposed to thermal stimuli followed by CFA injection and subsequent compound administration; format: functional, organism-based; details: TDE = time-dependent effect
[5] = test system: Rattus norvegicus; assay: Reversal of complete freund's adjuvant-induced thermal hyperalgesia in Sprague-Dawley rat model assessed as increase in paw withdrawal latency time at 1 to 30 mg/kg, po pre-exposed to thermal stimuli followed by CFA injection and subsequent compound administration relative to control; format: functional
[6] = test system: Rattus norvegicus; assay: Reversal of complete freund's adjuvant-induced thermal hyperalgesia in Sprague-Dawley rat model assessed as increase in paw withdrawal latency time at 1 to 30 mg/kg, po pre-exposed to thermal stimuli followed by CFA injection and subsequent compound administration measured after 30 to 180 mins; format: functional, organism-based
[7] = test system: Rattus norvegicus; assay: Reversal of complete freund's adjuvant-induced thermal hyperalgesia in po dosed Sprague-Dawley rat model assessed as increase in paw withdrawal latency time pre-exposed to thermal stimuli followed by CFA injection and subsequent compound administration; format: functional
[8] = test system: Rattus norvegicus; assay: Reversal of complete freund's adjuvant-induced thermal hyperalgesia in Sprague-Dawley rat model assessed as increase in paw withdrawal latency time at 1 to 30 mg/kg, po pre-exposed to thermal stimuli followed by CFA injection and subsequent compound administration; format: functional
[9] = Drug concentration in blood of Sprague-Dawley rat at 1 mg/kg, po; format: ADME, organism-based; details: in vivo, read-out: Ct
[10] = Drug concentration in blood of Sprague-Dawley rat at 3 mg/kg, po; format: ADME, organism-based; details: in vivo, read-out: Ct
[11] = Drug concentration in blood of Sprague-Dawley rat at 10 mg/kg, po; format: ADME, organism-based; details: in vivo, read-out: Ct
[12] = Drug concentration in blood of Sprague-Dawley rat at 30 mg/kg, po; format: ADME, organism-based; details: in vivo, read-out: Ct
[13] = Drug concentration in brain of Sprague-Dawley rat at 1 mg/kg, po; format: ADME, organism-based; details: in vivo, read-out: Ct
[14] = Drug concentration in brain of Sprague-Dawley rat at 3 mg/kg, po; format: ADME, organism-based; details: in vivo, read-out: Ct
[15] = Drug concentration in brain of Sprague-Dawley rat at 10 mg/kg, po; format: ADME, organism-based; details: in vivo, read-out: Ct
[16] = Drug concentration in brain of Sprague-Dawley rat at 30 mg/kg, po; format: ADME, organism-based; details: in vivo, read-out: Ct
[17] = test system: Rattus norvegicus; assay: Effect on 2-AG level in brain of Sprague-Dawley rat 1 mg/kg, po (reference value: 11.96 nmol/g); format: functional
[18] = test system: Rattus norvegicus; assay: Effect on 2-AG level in brain of Sprague-Dawley rat 3 mg/kg, po (reference value: 11.96 nmol/g); format: functional
[19] = test system: Rattus norvegicus; assay: Effect on 2-AG level in brain of Sprague-Dawley rat 10 mg/kg, po (reference value: 11.96 nmol/g); format: functional
[20] = test system: Rattus norvegicus; assay: Effect on 2-AG level in brain of Sprague-Dawley rat 30 mg/kg, po (reference value: 11.96 nmol/g); format: functional
[21] = target: T1, Fatty-acid amide hydrolase 1 (Homo sapiens, UniProt O00519); assay: Inhibition of FAAH (unknown origin)
T1 sequence (O00519 whole entry): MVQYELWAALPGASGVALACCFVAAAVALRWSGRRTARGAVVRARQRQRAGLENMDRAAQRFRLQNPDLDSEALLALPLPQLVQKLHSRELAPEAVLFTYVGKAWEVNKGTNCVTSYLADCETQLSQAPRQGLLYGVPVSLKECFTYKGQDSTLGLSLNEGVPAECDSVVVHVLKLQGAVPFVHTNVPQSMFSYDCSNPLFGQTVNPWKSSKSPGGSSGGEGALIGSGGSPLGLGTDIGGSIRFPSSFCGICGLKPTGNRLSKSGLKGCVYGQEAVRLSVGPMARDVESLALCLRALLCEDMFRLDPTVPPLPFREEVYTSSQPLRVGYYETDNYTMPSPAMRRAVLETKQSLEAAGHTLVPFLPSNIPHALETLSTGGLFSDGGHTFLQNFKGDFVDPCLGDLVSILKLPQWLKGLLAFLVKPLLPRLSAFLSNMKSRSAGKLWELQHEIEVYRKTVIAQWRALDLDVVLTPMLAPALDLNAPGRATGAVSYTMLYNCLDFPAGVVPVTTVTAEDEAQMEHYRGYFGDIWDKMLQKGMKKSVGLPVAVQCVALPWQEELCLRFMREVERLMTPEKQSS

[22] = target: Cannabinoid receptor 1 (Homo sapiens, UniProt P21554); assay: Binding affinity to CB1 receptor (unknown origin); format: ADME
[23] = target: Cannabinoid receptor 2 (Homo sapiens, UniProt P34972); assay: Binding affinity to CB2 receptor (unknown origin); format: ADME
[24] = target: Tryptase (Homo sapiens) (UniProt Q9BZJ3+Q15661+Q9NRR2); assay: Inhibition of tryptase (unknown origin) at 10 uM relative to control; format: protein assay
[25] = organism: Homo sapiens; assay: Inhibition of elastase (unknown origin) at 10 uM relative to control
[26] = target: Plasminogen (Homo sapiens) (UniProt P00747); assay: Inhibition of plasmin (unknown origin) at 10 uM relative to control
[27] = target: Chymotrypsin (Homo sapiens) (UniProt Q99895+P17538+P40313+Q6GPI1); assay: Inhibition of chymotrypsin (unknown origin) at 10 uM relative to control; format: protein assay
[28] = target: Tissue-type plasminogen activator (Homo sapiens) (UniProt P00750); assay: Inhibition of TPA (unknown origin) at 10 uM relative to control
Tissue-type plasminogen activator (Homo sapiens), sequence (P00750 36-562 limits assumed): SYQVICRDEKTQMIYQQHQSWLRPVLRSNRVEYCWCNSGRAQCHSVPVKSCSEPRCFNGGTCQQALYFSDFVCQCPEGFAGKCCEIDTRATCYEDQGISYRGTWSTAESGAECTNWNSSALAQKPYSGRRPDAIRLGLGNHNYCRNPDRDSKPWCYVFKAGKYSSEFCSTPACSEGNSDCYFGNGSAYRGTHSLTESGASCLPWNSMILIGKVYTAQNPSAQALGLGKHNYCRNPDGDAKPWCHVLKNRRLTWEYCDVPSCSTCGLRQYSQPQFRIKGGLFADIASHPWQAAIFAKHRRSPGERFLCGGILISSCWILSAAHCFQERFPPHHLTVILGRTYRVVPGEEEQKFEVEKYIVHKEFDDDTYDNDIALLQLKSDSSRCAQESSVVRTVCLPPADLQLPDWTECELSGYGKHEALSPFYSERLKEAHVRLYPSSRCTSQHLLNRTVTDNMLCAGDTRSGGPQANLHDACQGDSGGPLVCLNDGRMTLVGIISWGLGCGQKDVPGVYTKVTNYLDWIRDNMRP

Cannabinoid receptor 2, sequence (P34972 whole entry): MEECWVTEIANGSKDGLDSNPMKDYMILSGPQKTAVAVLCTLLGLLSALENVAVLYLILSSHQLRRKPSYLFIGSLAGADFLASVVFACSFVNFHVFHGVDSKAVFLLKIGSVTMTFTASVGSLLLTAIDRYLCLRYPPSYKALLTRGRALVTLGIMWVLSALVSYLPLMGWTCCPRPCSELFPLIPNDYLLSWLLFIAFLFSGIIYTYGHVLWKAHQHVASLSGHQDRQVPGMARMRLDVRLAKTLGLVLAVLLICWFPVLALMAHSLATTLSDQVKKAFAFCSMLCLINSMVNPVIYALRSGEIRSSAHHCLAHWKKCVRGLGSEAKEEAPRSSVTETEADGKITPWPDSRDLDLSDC
Plasminogen (Homo sapiens), sequence (P00747 97-580 limits assumed): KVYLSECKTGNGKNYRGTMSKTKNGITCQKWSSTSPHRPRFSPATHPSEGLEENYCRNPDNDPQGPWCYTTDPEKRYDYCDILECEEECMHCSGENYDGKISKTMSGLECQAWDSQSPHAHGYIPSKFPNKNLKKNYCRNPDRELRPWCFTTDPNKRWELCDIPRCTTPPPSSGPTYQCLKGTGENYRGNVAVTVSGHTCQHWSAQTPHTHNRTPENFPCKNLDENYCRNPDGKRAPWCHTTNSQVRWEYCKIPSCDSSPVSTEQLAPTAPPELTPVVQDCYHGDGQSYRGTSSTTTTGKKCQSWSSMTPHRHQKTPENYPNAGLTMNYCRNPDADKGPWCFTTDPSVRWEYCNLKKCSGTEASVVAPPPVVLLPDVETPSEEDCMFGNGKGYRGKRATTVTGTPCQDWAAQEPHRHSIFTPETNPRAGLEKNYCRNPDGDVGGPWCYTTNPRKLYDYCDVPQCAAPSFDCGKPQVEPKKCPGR
Plasminogen (Homo sapiens), sequence (P00747 581-810 limits assumed): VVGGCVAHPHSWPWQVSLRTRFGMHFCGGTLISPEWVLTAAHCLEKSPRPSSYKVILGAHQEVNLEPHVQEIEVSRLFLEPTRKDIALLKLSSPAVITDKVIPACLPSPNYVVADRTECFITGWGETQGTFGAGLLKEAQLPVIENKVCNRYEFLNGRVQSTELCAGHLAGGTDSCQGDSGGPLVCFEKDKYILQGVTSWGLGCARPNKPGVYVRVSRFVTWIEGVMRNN
Cannabinoid receptor 1, sequence (P21554 whole entry): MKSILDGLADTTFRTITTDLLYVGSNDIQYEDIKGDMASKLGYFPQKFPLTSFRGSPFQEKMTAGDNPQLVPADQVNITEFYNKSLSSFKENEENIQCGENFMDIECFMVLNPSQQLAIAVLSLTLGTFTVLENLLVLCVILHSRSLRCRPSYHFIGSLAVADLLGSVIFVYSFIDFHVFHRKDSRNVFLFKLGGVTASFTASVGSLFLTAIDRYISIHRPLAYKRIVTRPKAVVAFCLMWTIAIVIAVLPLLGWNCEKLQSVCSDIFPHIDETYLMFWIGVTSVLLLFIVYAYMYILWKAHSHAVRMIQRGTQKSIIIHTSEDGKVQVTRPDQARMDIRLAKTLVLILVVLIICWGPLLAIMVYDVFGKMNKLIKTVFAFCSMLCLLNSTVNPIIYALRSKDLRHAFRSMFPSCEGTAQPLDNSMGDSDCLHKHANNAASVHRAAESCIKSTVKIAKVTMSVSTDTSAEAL

O=C(c1ccc2c(ccn2-c2ccc(F)cc2)c1)N1CC(N2CCN(C(=O)c3nccs3)CC2)C1
bioavailability [1]: 45% | Tmax [2]: 1.75 h | Cmax [3]: 710 ng/mL | Activity [4]: Tde | Activity [5]: 100% | Activity [6]: Active | ED50 [7]: 3 mg/kg | Time [8]: 100 min | concentration [9]: 24.9 nM | concentration [10]: 135 nM | concentration [11]: 519 nM | concentration [12]: 3070 nM | concentration [13]: 142 nM | concentration [14]: 339 nM | concentration [15]: 668 nM | concentration [16]: 3540 nM | Activity [17]: 19.28 nmol/g | Activity [18]: 33.01 nmol/g | Activity [19]: 46.43 nmol/g | Activity [20]: 108.4 nmol/g | IC50 [21]: 4 µM | IC50 [22]: > 10 µM | IC50 [23]: > 10 µM | inhibition [24]: 2% | inhibition [25]: 4% | inhibition [26]: 4% | inhibition [27]: -3% | inhibition [28]: 6%
